Source: patent US7041685B2, “Substituted 3-aryl-5-aryl-[1,2,4]-oxadiazoles and analogs as activators of caspases and inducers of apoptosis and the use thereof” (Cytovia, Inc., priority 2001, dated 2006)

Columns and labels:
NCI-H23 = assay: Cell proliferation assay (GI50), NCI-H23; assay type: cell-based; conditions: Homo sapiens; NCI-H23, non-breast cancer cell line, 48 h
Experimental: [The source words this procedure for another cell line and reports this cell line under the same test.] (§1) T-47D and SKBr-3 cells were grown and harvested as in Example 121. An aliquot of 90 μL of cells (2. 2×10^4 cells/mL) was added to a well of a 96-well microtiter plate containing 10 μl of a 10% DMSO in RPMI-1640 media solution containing 1 nM to 100 μM of 5-(3-chloro-thiophen-2-yl)-3-(4-trifluoromethyl-phenyl)-[1,2,4]-oxadiazole (0.1 nM to 10 μM final). An aliquot of 90 μL of cells was added to a well of a 96-well microtiter plate containing 10 μL of a 10% DMSO in RPMI-1640 media solution without compound as the control sample for maximal cell proliferation (AMax). The samples were mixed by agitation and then incubated at 37° C. for 48 h in a 5% CO2—95% humidity incubator. After incubation, the samples were removed from the incubator and 20 μL of CellTiter 96 AQUEOUS One Solution Cell Proliferation™ reagent (Promega) was added. The samples were mixed by agitation and incubated at 37° C. for 2-4 h in a 5% CO2—95% humidity incubator. Using an absorbance plate reader (Model 1420 Wallac Instruments), an initial reading (T=0) was made approximately 1-2 min after addition of the solution, employing absorbance at 490 nm. This determines the possible background absorbance of the test compounds. No absorbance for 5-(3-chloro-thiophen-2-yl)-3-(4-trifluoromethyl-phenyl)-[1,2,4]-oxadiazole was found at 490 nm. After the 2-4 h incubation, the samples were read for absorbance as above (ATest). […]

K562 = assay: Cell proliferation assay (GI50), K562; assay type: cell-based; conditions: Homo sapiens; K562, non-breast cancer cell line, 48 h
Experimental: [The source words this procedure for another cell line and reports this cell line under the same test.] as §1

DLD-1 = assay: Cell proliferation assay (GI50), DLD-1; assay type: cell-based; conditions: Homo sapiens; DLD-1, colon cancer cell line, 48 h
SK-Br-3 = assay: Cell proliferation assay (GI50), SK-Br-3; assay type: cell-based; conditions: Homo sapiens; SK-Br-3, breast cancer cell line, 48 h
Experimental: as §1

T-47D [1] = assay: Cell proliferation assay (GI50), T-47D; assay type: cell-based; conditions: Homo sapiens, T47D, 48 h
Experimental: as §1

PC-3 = assay: Cell proliferation assay (GI50), PC-3; assay type: cell-based; conditions: Homo sapiens; PC-3, non-breast cancer cell line, 48 h
Experimental: [The source words this procedure for another cell line and reports this cell line under the same test.] as §1

T-47D [2] = assay: Caspase cascade activation assay (fluorogenic N-(Ac-DEVD)-N'-ethoxycarbonyl-R110 substrate) in T-47D cells; assay type: cell-based, Human; conditions: 48 h incubation; for Caspase Activity Ratio: ratio of net RFU of compound to control; for EC50: Homo sapiens, T47D, read-out: Caspase Potency EC50
Experimental: Human breast cancer cell lines T-47D and ZR-75-1 were grown according to media component mixtures designated by American Type Culture Collection +10% FCS (Invitrogen Corporation), in a 5% CO2—95% humidity incubator at 37° C. T-47D and ZR-75-1 cells were maintained at a cell density between 50 and 80% confluency at a cell density of 0.1 to 0.6×10^6 cells/mL. Cells were harvested at 600×g and resuspended at 0.65×10^6 cells/mL into appropriate media +10% FCS. An aliquot of […] of cells was added to a well of a […] microtiter plate containing 2.5 μl of a 10% DMSO in RPMI-1640 media solution containing 0.16 to 100 μM of 5-(3-chloro-thiophen-2-yl)-3-(4-trifluoromethyl-phenyl)-[1,2,4]-oxadiazole or other test compound (0.016 to 10 μM final). An aliquot of 22.5 μL of cells was added to a well of a […] microtiter plate containing 2.5 μl of a 10% DMSO in RPMI-1640 media solution without test compound as the control sample. The samples were mixed by agitation and then incubated at 37° C. for 48 h in a 5% CO2—95% humidity incubator. After incubation, the samples were removed from the incubator and 25 μL of a solution containing 14 μM of N-(Ac-DEVD)-N′-ethoxycarbonyl-R110 (SEQ ID No.:1) fluorogenic substrate (Maxim, Inc.; WO99/18856), 20% sucrose (Sigma), 20 mM DTT (Sigma), 200 mM NaCl (Sigma), 40 mM Na PIPES buffer pH 7.2 (Sigma), and 500 μg/mL lysolecithin (Calbiochem) was added. The samples were mixed by agitation and incubated at room temperature. Using a fluorescent plate reader (Model SpectraMax Gemini, Molecular Devices), an initial reading (T=0) was made approximately 1-2 min after addition of the substrate solution, employing excitation at 485 nm and emission at 530 nm, to determine the background fluorescence of the control sample. After the 3 h incubation, the samples were read for fluorescence as above (T=3 h).
The Relative Fluorescence Unit values (RFU) were used to calculate the sample readings as follows: RFU(T=3 h)−Control RFU(T=0)=Net RFU(T=3 h)
The activity of caspase cascade activation was determined by the ratio of the net RFU value for 5-(3-chloro-thiophen-2-yl)-3-(4-trifluoromethyl-phenyl)-[1,2,4]-oxadiazole or other test compound to that of control samples. The EC50 (nM) was determined by a sigmoidal dose-response calculation (Prism 2.0, GraphPad Software Inc.).

ZR-75-1 = assay: Cell proliferation assay (GI50), ZR-75-1; assay type: cell-based; conditions: Homo sapiens, ZR75-1, 48 h
Experimental: [The source words this procedure for another cell line and reports this cell line under the same test.] as §1

Panc-1 = assay: Cell proliferation assay (GI50), Panc-1; assay type: cell-based; conditions: Homo sapiens; Panc-1, non-breast cancer cell line, 48 h
Experimental: [The source words this procedure for another cell line and reports this cell line under the same test.] as §1

SW-620 = assay: Cell proliferation assay (GI50), SW-620; assay type: cell-based; conditions: Homo sapiens; SW-620, non-breast cancer cell line, 48 h
MX-1 = assay: Cell proliferation assay (GI50), MX-1; assay type: cell-based; conditions: Homo sapiens, MX1; MX-1, breast cancer cell line, 48 h
Experimental: [The source words this procedure for another cell line and reports this cell line under the same test.] as §1

MX-1 cells = assay: Clonogenic survival of MX-1 solid tumor cells; assay type: cell-based; conditions: Homo sapiens, MX1, 48 h treatment, colonies counted after 7-10 days, read-out: IC50 of colony forming ability (clonogenic survival)
Experimental: MX-1 cells were grown according to the conditions recommended by American Type Culture Collection. In a well of a 96 well plate, 30,000 cells were seeded and treated with compound at the indicated concentrations for 48 h in a 5% CO2—95% humidity incubator at 37° C. Control wells were treated with the same amount of solvent (DMSO) as the compound samples. After the indicated treatment time, the supernatant was removed to a sterile culture tube and the wells washed with phosphate buffered saline, and the adherent cells trypsinized for 5 min. The trypsinzed cells were added to the culture supernatant, cells were collected (1,200 rpm, 10 min), washed with phosphate buffered saline, and resupended in fresh media. The cells were counted for trypan blue negative cells, and the cells diluted with fresh media to 1,000 cells/mL. To a well of a 24-well plate, 0.1 mL of the cell suspension was added along with 1 mL of fresh media (cell suspensions were passed through a 22G needle several times just before plating to form single cell suspensions). Plates are incubated in a 5% CO2—95% humidity incubator at 37° C. for 7-10 days. Colonies are counted when the sizes reached greater than 50 cells per colony. […] Colonies are rinsed with water and the colonies counted and the fraction surviving expressed as the percentage of the number of control colonies.

SMILES: Clc1ccc(-c2noc(-c3sccc3Cl)n2)cc1 [Example 1, 3-(4-Chloro-phenyl)-5-(3-chloro-thiophen-2-yl)-[1,2,4]-oxadiazole]
- GI50 (NCI-H23): > 10 µM
- GI50 (K562): > 10 µM
- GI50 (DLD-1): 0.035 µM
- GI50 (SK-Br-3): 0.02 µM
- GI50 (T-47D [1]): 0.25 µM
- GI50 (PC-3): > 10 µM
- Caspase Activity Ratio (T-47D [2]): 16.9
- EC50 (T-47D [2]): 3.61 µM
- GI50 (ZR-75-1): 0.2 µM
- GI50 (Panc-1): > 10 µM
- GI50 (SW-620): > 10 µM
- GI50 (MX-1): 0.3 µM

SMILES: FC(F)(F)c1ccc(-c2noc(-c3sccc3Cl)n2)cc1 [Example 4, 5-(3-Chloro-thiophen-2-yl)-3-(4-trifluoromethyl-phenyl)-[1,2,4]-oxadiazole]
- Caspase Activity Ratio (T-47D [2]): 4.2
- EC50 (T-47D [2]): 5.35 µM
- IC50 (MX-1 cells): ~1.05 µM

SMILES: Fc1ccc(-c2noc(-c3sccc3Cl)n2)cc1 [Example 5, 5-(3-Chloro-thiophen-2-yl)-3-(4-fluoro-phenyl)-[1,2,4]-oxadiazole]
- GI50 (NCI-H23): > 10 µM
- GI50 (K562): > 10 µM
- GI50 (DLD-1): 0.04 µM
- GI50 (SK-Br-3): 0.02 µM
- GI50 (T-47D [1]): 0.3 µM
- GI50 (PC-3): > 10 µM
- Caspase Activity Ratio (T-47D [2]): 19.7
- EC50 (T-47D [2]): 2.15 µM
- GI50 (ZR-75-1): 0.4 µM
- GI50 (Panc-1): > 10 µM
- GI50 (SW-620): > 10 µM
- GI50 (MX-1): 0.4 µM

SMILES: O=[N+]([O-])c1ccc(-c2noc(-c3sccc3Cl)n2)cc1 [Example 6, 5-(3-Chloro-thiophen-2-yl)-3-(4-nitro-phenyl)-[1,2,4]-oxadiazole]
- Caspase Activity Ratio (T-47D [2]): 3.8
- EC50 (T-47D [2]): 5 µM

SMILES: Clc1ccc(-c2noc(-c3sccc3Cl)n2)c(Cl)c1 [Example 7, 5-(3-Chloro-thiophen-2-yl)-3-(2,4-dichloro-phenyl)-[1,2,4]-oxadiazole]
- Caspase Activity Ratio (T-47D [2]): 4.1
- EC50 (T-47D [2]): 0.865 µM
